Experimental data published in ChEMBL document CHEMBL1201862, “PubChem BioAssay data set” (2004).
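Assay format: 96-well plates, 48-hour exposure. At the GI50, growth is halved.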 Active and inactive are the calls of the source. No stated cut-off is given here; in the data, active = GI50 up to about 1.1 µM and inactive = higher.

What was measured:
Experiment in all cases: inhibition of tumour cell growth, NCI panel, 48 h
786-0 = system: 786-0
DMS-114 = system: DMS-114
DMS-273 = system: DMS-273
HL-60 = system: HL-60
HOP-18 = system: HOP-18
M14 = system: M14
M19-MEL = system: M19-MEL
NCI-H460 = system: NCI-H460
NCI-H522 = system: NCI-H522
RPMI-8226 = system: RPMI-8226
SK-MEL-28 = system: SK-MEL-28
SNB-78 = system: SNB-78
U-251 = system: U-251
A498 = system: A498
COLO 205 = system: COLO 205
NCI-H226 = system: NCI-H226
XF498 = system: XF498
DU-145 = system: DU-145
MDA-N = system: MDA-N
PC-3 = system: PC-3

SMILES | GI50 (786-0) | GI50 (DMS-114) | GI50 (DMS-273) | GI50 (HL-60) | GI50 (HOP-18) | GI50 (M14) | GI50 (M19-MEL) | GI50 (NCI-H460) | GI50 (NCI-H522) | GI50 (RPMI-8226) | GI50 (SK-MEL-28) | GI50 (SNB-78) | GI50 (U-251) | GI50 (A498) | GI50 (COLO 205) | GI50 (NCI-H226) | GI50 (XF498) | GI50 (DU-145) | GI50 (MDA-N) | GI50 (PC-3)
COc1ccc(C[C@H](N)C(=O)N2C[C@@H](CO)C[C@@H](n3cnc4c(N(C)C)ncnc43)C2)cc1 | > 100 µM (inactive) | > 100 µM (inactive) | > 100 µM (inactive) | > 100 µM (inactive) | > 100 µM (inactive) | > 100 µM (inactive) | > 100 µM (inactive) | > 100 µM (inactive) | > 100 µM (inactive) | > 100 µM (inactive) | > 100 µM (inactive) | > 100 µM (inactive) | > 100 µM (inactive) |  |  |  |  |  |  | 
CC1=CC(O)C(O)C2(C)C1CC1OC(=O)C(O)C3C(C)C(O)C4(O)OCC13C42 (stereo not drawn) |  | 35.4 µM (inactive) | 153 µM (inactive) | 33 µM (inactive) | 155 µM (inactive) |  | 56 µM (inactive) | 7.82 µM (inactive) | 50.5 µM (inactive) | 16.9 µM (inactive) | 118 µM (inactive) | 39.4 µM (inactive) | 62.8 µM (inactive) | 17.9 µM (inactive) | 20.1 µM (inactive) | 41.3 µM (inactive) | 53.1 µM (inactive) |  |  | 
CSC1=C(SC)C(=O)c2cn(C)c(=O)cc2C1=O |  |  |  | 0.0731 µM (active) |  | 1.73 µM (inactive) |  | 9.38 µM (inactive) | 0.853 µM (active) | 2.4 µM (inactive) | 2.82 µM (inactive) |  | 10.2 µM (inactive) | 15.1 µM (inactive) | 1.49 µM (inactive) | 19.9 µM (inactive) |  | 8.47 µM (inactive) | 1.64 µM (inactive) | 9.55 µM (inactive)
COc1cc2c(oc(=O)c3cc4cc([Si](C)(C)C)oc4c(OC)c32)c2cccc(O)c12 | > 100 µM (inactive) | > 100 µM (inactive) | > 100 µM (inactive) | > 100 µM (inactive) | > 100 µM (inactive) | > 100 µM (inactive) | > 100 µM (inactive) | > 100 µM (inactive) | > 100 µM (inactive) | > 100 µM (inactive) | > 100 µM (inactive) | > 100 µM (inactive) | > 100 µM (inactive) | 78.9 µM (inactive) | > 100 µM (inactive) | > 100 µM (inactive) | > 100 µM (inactive) |  |  | 
Cc1cn(C2CC(O)C(Cn3cc(Cn4nc(Br)c(=O)[nH]c4=O)nn3)O2)c(=O)[nH]c1=O (stereo not drawn) |  |  |  |  |  | > 100 µM (inactive) |  |  |  | > 100 µM (inactive) | > 100 µM (inactive) |  | > 100 µM (inactive) | > 100 µM (inactive) | > 100 µM (inactive) | > 100 µM (inactive) |  | > 100 µM (inactive) | > 100 µM (inactive) | > 100 µM (inactive)
Cc1ccc(C=C(C(=O)O)C(=O)O)o1 | > 100 µM (inactive) |  |  | > 100 µM (inactive) |  | > 100 µM (inactive) |  | > 100 µM (inactive) | > 100 µM (inactive) | > 100 µM (inactive) | > 100 µM (inactive) |  | > 100 µM (inactive) | > 100 µM (inactive) | > 100 µM (inactive) | > 100 µM (inactive) |  | > 100 µM (inactive) | > 100 µM (inactive) | > 100 µM (inactive)
C[N+](C)(CCO)CCN1c2ccccc2Sc2ccccc21 |  |  |  | > 10 µM (inactive) |  | > 10 µM (inactive) |  | > 10 µM (inactive) | > 10 µM (inactive) | > 10 µM (inactive) | > 10 µM (inactive) |  | > 10 µM (inactive) | > 10 µM (inactive) | > 10 µM (inactive) | > 10 µM (inactive) |  | > 10 µM (inactive) | > 10 µM (inactive) | > 10 µM (inactive)
CC(=O)Nc1ccc2oc(=O)c3ccccc3c2c1 | > 100 µM (inactive) |  |  | > 100 µM (inactive) |  | > 100 µM (inactive) |  | > 100 µM (inactive) | > 100 µM (inactive) | > 100 µM (inactive) | > 100 µM (inactive) |  | > 100 µM (inactive) | > 100 µM (inactive) | > 100 µM (inactive) | > 100 µM (inactive) |  | > 100 µM (inactive) | > 100 µM (inactive) | > 100 µM (inactive)
C=C1C(=O)O[C@@H]2/C=C(\C)CC/C=C(\C)CC[C@@]12O | 1.37 µM (inactive) |  |  | 0.771 µM (active) |  | 3.7 µM (inactive) |  | 9.55 µM (inactive) | 0.371 µM (active) | 0.948 µM (active) | 3.99 µM (inactive) |  | 7.36 µM (inactive) | 9.12 µM (inactive) | 1.84 µM (inactive) | 13.8 µM (inactive) |  | 1.97 µM (inactive) | 2.25 µM (inactive) | 4.28 µM (inactive)
CCNC(=O)C(C)C1CCC2(C)C=CC(=O)C(C)=C2C1O (stereo not drawn) |  | > 100 µM (inactive) | > 77.4 µM (inactive) | > 100 µM (inactive) | > 100 µM (inactive) |  | > 100 µM (inactive) | > 100 µM (inactive) | > 100 µM (inactive) | > 100 µM (inactive) | > 100 µM (inactive) | > 100 µM (inactive) | > 76.4 µM (inactive) | > 100 µM (inactive) | > 100 µM (inactive) | > 100 µM (inactive) | > 100 µM (inactive) |  |  | 
